Where two headings read alike, the source gives them in different places.
Tests used:
[1] = tested on: wild amaranth; assay: Nonselective composition of 1 uracil compound and 2 herbicidally active compounds, plant mortality; assay type: in vivo; details: Amaranthus caudatus, 480 h; 8 g ai/ha; read-out: Wild amaranth mortality (measured value)
Excerpt: (§1) X is % damage by uracil compound (a) of formula 1 at the rate of application of p kg/ha; Y is % damage by conventional herbicidal compound (b) at the rate of application of q kg/ha; and E is the expected damage caused by compounds (a) and (b) at a rate of application of p and q kg/ha.
(§2) The expected activity for a given combination of two herbicides can be calculated using equation 1 above.

[2] = tested on: Echinochloa crus; assay: Paddy field farming herbicidal composition test, plant mortality; assay type: in vivo; details: Echinochloa; 5 g/ha; read-out: Echinochloa crus mortality (measured value)
Excerpt: as §1, §2

[3] = tested on: Echinochloa crus; details: for Echinochloa crus mortality, measured value: 20 days after treatment; for plant mortality, measured value: Echinochloa crus
Excerpt: as §1, §2

[4] = tested on: Abutilon theophrasti; assay: Dry field farming herbicidal composition test, plant mortality; assay type: in vivo; details: Abutilon theophrasti, read-out: Abutilon theophrasti mortality, measured value
Excerpt: as §1, §2

[5] = tested on: Monochoria vaginalis; assay: Paddy field farming herbicidal composition test, plant mortality; assay type: in vivo; details: Pontederia vaginalis, read-out: Monochoria vaginalis mortality (measured value)
Excerpt: as §1, §2

[6] = tested on: Abutilon theophrasti; assay: whole plant or invertebrate
Excerpt: as §1, §2

[7] = tested on: wheat; assay: Dry field farming herbicidal composition test, plant mortality (crop)
Excerpt: as §1, §2

[8] = tested on: Xanthium spinosum; assay: whole plant or invertebrate
Excerpt: as §1, §2

[9] = tested on: Digitaria sanguinalis; assay: Dry field farming herbicidal composition test, plant mortality; assay type: in vivo
Excerpt: as §1, §2

[10] = tested on: Digitaria sanguinalis; details: for Digitaria sanguinalis mortality, measured value: 20 days after treatment
Excerpt: as §1, §2

[11] = tested on: Lamium amplexicaule; assay: Dry field farming herbicidal composition test, plant mortality; assay type: in vivo; details: in % (unit assumed)
Excerpt: as §1, §2

[12] = tested on: Alopecurus aequalis; assay: as above; assay type: in vivo; details: in % (unit assumed)
Excerpt: as §1, §2

[13] = tested on: ryegrass; assay: Nonselective composition of 1 uracil compound and 2 herbicidally active compounds, plant mortality; assay type: in vivo; details: 480 h; 8 g ai/ha; read-out: ryegrass mortality (measured value)
Excerpt: as §1, §2

[14] = tested on: Porippa islandica; assay: Dry field farming herbicidal composition test, plant mortality; assay type: in vivo
Excerpt: as §1, §2

[15] = tested on: Aeschynomene indica; assay: whole plant or invertebrate
Excerpt: as §1, §2

[16] = tested on: Echinochloa crus; assay: Dry field farming herbicidal composition test, plant mortality; assay type: in vivo
Excerpt: as §1, §2

[17] = tested on: corn
[18] = tested on: Aeschynomene indica; assay: Dry field farming herbicidal composition test, plant mortality; assay type: in vivo
Excerpt: as §1, §2

[19] = tested on: rice plant; assay: Paddy field farming herbicidal composition test, plant mortality (crop)
Excerpt: as §1, §2

[20] = tested on: Ludwigia prostrate; assay: Paddy field farming herbicidal composition test, plant mortality; assay type: in vivo
Excerpt: as §1, §2

[21] = tested on: Capsella bursapastoris; assay: Dry field farming herbicidal composition test, plant mortality; assay type: in vivo; details: in % (unit assumed)
Excerpt: as §1, §2

[22] = 480 h, read-out: Abutilon theophrasti mortality, measured value
[23] = 480 h, read-out: Xanthium spinosum mortality, measured value
[24] = read-out: plant mortality, measured value, 4 g/ha
[25] = read-out: plant mortality, measured value, 8 g/ha
[26] = read-out: plant mortality, measured value, 16 g/ha
[27] = 480 h, read-out: Aeschynomene indica mortality, measured value

SMILES: COC(=O)CCNC(=O)C(C)Sc1cc(-n2c(=O)cc(C(F)(F)F)n(C)c2=O)c(F)cc1Cl (stereo not drawn) [Compound 36, 3-[{2-[2-chloro-5-(3,6-dihydro-3-methyl-2,6-dioxo-4-trifluoromethyl-1(2H)-pyrimidinyl)-4-fluorophenylthio]-1-oxopropyl}amino]propionic acid methyl ester]
- pest or weed control at 8 g/ha [1]: 40%
- pest or weed control at 5 g/ha [2]: 0%
- Data (measured value) Echinochloa crus ([3]; 4 g/ha): 0
- Echinochloa crus mortality, measured value ([3]; 4 g/ha): 0%
- plant mortality, measured value ([3]; 4 g/ha): 0
- Data (measured value) Echinochloa crus ([3]; 8 g/ha): 5
- Echinochloa crus mortality, measured value ([3]; 8 g/ha): 5%
- plant mortality, measured value ([3]; 8 g/ha): 5
- Echinochloa crus mortality, measured value ([3]; 16 g/ha): 10%
- Data (measured value) Echinochloa crus ([3]; 20 g/ha): 17
- Echinochloa crus mortality, measured value ([3]; 20 g/ha): 17%
- Data (measured value) Echinochloa crus ([3]; 40 g/ha): 37
- Echinochloa crus mortality, measured value ([3]; 40 g/ha): 37%
- Data (measured value) Echinochloa crus ([3]; 80 g/ha): 61
- Echinochloa crus mortality, measured value ([3]; 80 g/ha): 61%
- pest or weed control at 1 g/ha ([4]; 1 g/ha): 15%
- pest or weed control at 2 g/ha ([4]; 2 g/ha): 35%
- pest or weed control at 4 g/ha ([4]; 4 g/ha): 50%
- pest or weed control at […] ([5]; 2.5 g/ha): 5%
- pest or weed control at 5 g/ha ([5]; 5 g/ha): 30%
- pest or weed control at 10 g/ha ([5]; 10 g/ha): 50%
- mortality at 4 g/ha [6, 22]: 11%
- mortality at 8 g/ha [6, 22]: 38%
- mortality at 16 g/ha [6, 22]: 51%
- mortality at 20 g/ha [6, 22]: 58%
- mortality at 40 g/ha [6, 22]: 100%
- mortality at 80 g/ha [6, 22]: 100%
- pest or weed control at 4 g/ha ([6]; read-out: Data (measured value) Abutilon theophrasti, 4 g/ha): 15%
- pest or weed control at 8 g/ha ([6]; read-out: Data (measured value) Abutilon theophrasti, 8 g/ha): 35%
- pest or weed control at 16 g/ha ([6]; read-out: Data (measured value) Abutilon theophrasti, 16 g/ha): 47%
- pest or weed control at 20 g/ha ([6]; read-out: Data (measured value) Abutilon theophrasti, 20 g/ha): 58%
- pest or weed control at 40 g/ha ([6]; read-out: Data (measured value) Abutilon theophrasti, 40 g/ha): 100%
- pest or weed control at 80 g/ha ([6]; read-out: Data (measured value) Abutilon theophrasti, 80 g/ha): 100%
- Wheat mortality, measured value ([7]; 1 g/ha): 0
- Wheat mortality, measured value ([7]; 2 g/ha): 0
- Wheat mortality, measured value ([7]; 4 g/ha): 1
- mortality at 4 g/ha [8, 23]: 21%
- mortality at 8 g/ha [8, 23]: 42%
- mortality at 16 g/ha [8, 23]: 56%
- mortality at 20 g/ha [8, 23]: 51%
- mortality at 40 g/ha [8, 23]: 90%
- mortality at 80 g/ha [8, 23]: 100%
- pest or weed control at 4 g/ha ([8]; read-out: Data (measured value) Xanthium spinosum, 4 g/ha): 24%
- pest or weed control at 8 g/ha ([8]; read-out: Data (measured value) Xanthium spinosum, 8 g/ha): 59%
- pest or weed control at 16 g/ha ([8]; read-out: Data (measured value) Xanthium spinosum, 16 g/ha): 79%
- pest or weed control at 20 g/ha ([8]; read-out: Data (measured value) Xanthium spinosum, 20 g/ha): 51%
- pest or weed control at 40 g/ha ([8]; read-out: Data (measured value) Xanthium spinosum, 40 g/ha): 90%
- pest or weed control at 80 g/ha ([8]; read-out: Data (measured value) Xanthium spinosum, 80 g/ha): 100%
- pest or weed control at 4 g/ha [8, 24]: 25%
- pest or weed control at 8 g/ha [8, 25]: 50%
- pest or weed control at 16 g/ha [8, 26]: 70%
- Digitaria sanguinalis mortality, measured value ([9]; 4 g/ha): 10%
- pest or weed control at 1 g/ha ([9]; Digitaria sanguinalis, 1 g/ha, read-out: Digitaria sanguinalis mortality, measured value): 0%
- pest or weed control at 2 g/ha ([9]; Digitaria sanguinalis, 2 g/ha, read-out: Digitaria sanguinalis mortality, measured value): 0%
- pest or weed control at 4 g/ha ([9]; Digitaria sanguinalis, 4 g/ha, read-out: Digitaria sanguinalis mortality, measured value): 10%
- Data (measured value) Digitaria sanguinalis ([10]; 4 g/ha): 0
- Digitaria sanguinalis mortality, measured value ([10]; 4 g/ha): 0%
- plant mortality, measured value ([10]; 4 g/ha, Digitaria sanguinalis): 0
- Digitaria sanguinalis mortality, measured value ([10]; 8 g/ha): 5%
- Data (measured value) Digitaria sanguinalis ([10]; 16 g/ha): 15
- Digitaria sanguinalis mortality, measured value ([10]; 16 g/ha): 16%
- Data (measured value) Digitaria sanguinalis ([10]; 20 g/ha): 19
- Digitaria sanguinalis mortality, measured value ([10]; 20 g/ha): 19%
- Data (measured value) Digitaria sanguinalis ([10]; 40 g/ha): 43
- Digitaria sanguinalis mortality, measured value ([10]; 40 g/ha): 43%
- Data (measured value) Digitaria sanguinalis ([10]; 80 g/ha): 71
- Digitaria sanguinalis mortality, measured value ([10]; 80 g/ha): 71%
- Lamium amplexicaule mortality, measured value ([11]; 1 g/ha): 10
- Lamium amplexicaule mortality, measured value ([11]; 2 g/ha): 30
- Lamium amplexicaule mortality, measured value ([11]; 4 g/ha): 50
- Alopecurus aequalis mortality, measured value ([12]; 1 g/ha): 0
- Alopecurus aequalis mortality, measured value ([12]; 2 g/ha): 0
- Alopecurus aequalis mortality, measured value ([12]; 4 g/ha): 10
- pest or weed control at 8 g/ha [13]: 30%
- Porippa islandica mortality, measured value ([14]; 1 g/ha): 10
- Porippa islandica mortality, measured value ([14]; 2 g/ha): 30
- Porippa islandica mortality, measured value ([14]; 4 g/ha): 55
- mortality at 4 g/ha [15, 27]: 26%
- mortality at 8 g/ha [15, 27]: 52%
- mortality at 16 g/ha [15, 27]: 69%
- mortality at 20 g/ha [15, 27]: 56%
- mortality at 40 g/ha [15, 27]: 100%
- mortality at 80 g/ha [15, 27]: 100%
- pest or weed control at 4 g/ha ([15]; read-out: Data (measured value) Aeschynomene indica, 4 g/ha): 19%
- pest or weed control at 8 g/ha ([15]; read-out: Data (measured value) Aeschynomene indica, 8 g/ha): 46%
- pest or weed control at 16 g/ha ([15]; read-out: Data (measured value) Aeschynomene indica, 16 g/ha): 61%
- pest or weed control at 20 g/ha ([15]; read-out: Data (measured value) Aeschynomene indica, 20 g/ha): 56%
- pest or weed control at 40 g/ha ([15]; read-out: Data (measured value) Aeschynomene indica, 40 g/ha): 100%
- pest or weed control at 80 g/ha ([15]; read-out: Data (measured value) Aeschynomene indica, 80 g/ha): 100%
- pest or weed control at 4 g/ha [15, 24]: 20%
- pest or weed control at 8 g/ha [15, 25]: 45%
- pest or weed control at 16 g/ha [15, 26]: 65%
- Echinochloa crus mortality, measured value ([16]; 4 g/ha): 5%
- pest or weed control at 1 g/ha ([16]; Echinochloa, 1 g/ha, read-out: Echinochloa crus mortality, measured value): 0%
- pest or weed control at 2 g/ha ([16]; Echinochloa, 2 g/ha, read-out: Echinochloa crus mortality, measured value): 0%
- pest or weed control at 4 g/ha ([16]; Echinochloa, 4 g/ha, read-out: Echinochloa crus mortality, measured value): 5%
- Corn mortality, measured value ([17]; 1 g/ha): 0
- Corn mortality, measured value ([17]; 2 g/ha): 0
- Corn mortality, measured value ([17]; 4 g/ha): 1
- Aeschynomene indica mortality, measured value ([18]; 1 g/ha): 10%
- Aeschynomene indica mortality, measured value ([18]; 4 g/ha): 45%
- pest or weed control at 1 g/ha ([18]; Aeschynomene indica, 1 g/ha, read-out: Aeschynomene indica mortality, measured value): 10%
- pest or weed control at 2 g/ha ([18]; Aeschynomene indica, 2 g/ha, read-out: Aeschynomene indica mortality, measured value): 25%
- pest or weed control at 4 g/ha ([18]; Aeschynomene indica, 4 g/ha, read-out: Aeschynomene indica mortality, measured value): 45%
- Rice plant mortality (measured value) ([19]; 5 g/ha): 0
- Rice plant mortality (measured value) ([19]; 10 g/ha): 1
- Ludwigia prostrate mortality (measured value) ([20]; 5 g/ha): 35%
- Ludwigia prostrate mortality (measured value) ([20]; 10 g/ha): 55%
- Capsella bursapastoris mortality, measured value ([21]; 1 g/ha): 5
- Capsella bursapastoris mortality, measured value ([21]; 2 g/ha): 25
- Capsella bursapastoris mortality, measured value ([21]; 4 g/ha): 45

— patent US10206399B2, “Herbicidal composition comprising uracil compound as active ingredient” (Dongbu Farm Hannong Co., Ltd., priority 2012, dated 2019)
